These results are taken from US12534436B2, “Disubstituted adamantyl derivative or pharmaceutically acceptable salt thereof, and pharmaceutical composition for suppressing cancer growth comprising same as active ingredient” (ONECUREGEN CO., LTD., priority 2020, dated 2026).

For orientation: IC50 means the midpoint of a concentration-inhibition curve.

The subject of one experiment is HIF-1 (HRE-dependent luciferase reporter). Description: HRE-luciferase assay, screening of HIF-1 inhibitors in HCT116 cells. The experiment is classed as cell-based, human. As to conditions: HCT116 cells stably expressing HRE-dependent luciferase reporter, hypoxic conditions, 12 hours; means of three experiments. The procedure:
HCT116 cells stably expressing the HRE-dependent luciferase reporter were treated with the disubstituted adamantyl derivative prepared in the above example under hypoxic conditions for 12 hours before measuring luciferase activity.
In HCT116 cells treated with disubstituted adamantyl derivatives, luciferase activity was investigated using HRE-luciferase assay. The HRE-luciferase reporter assay was performed as previously described using the luciferase assay system (Promega, Madison, WI, USA) according to the manufacturer's instructions (Naik, R. et al. Synthesis and Structure-Activity Relationship of (E)Phenoxyacrylic Amide Derivatives as Hypoxia-Inducible Factor (HIF) 1α Inhibitors. J. Med. Chem. 55, 10564-1057 (2012)). Luciferase activity was measured using a Victor X light luminescence reader (PerkinElmer, Boston, MA, USA).
(In general: Reporter assays use an easily measured gene product as a stand-in for the process of interest.)
`COc1ccc(COC(=O)C23CC4CC(CC(C4)C2c2ccc(OCC(=O)NCc4ccco4)cc2)C3)cc1OC` (stereo not shown) [Compound 14c, 3,4-Dimethoxybenzyl-2-(4-(2-(furan-2-ylmethylamino)-2-oxoethoxy)phenyl) adamantane-1-ylcarboxylate] returned an IC50 of 22.5 µM.

Turning to `COc1ccc(COC(=O)C23CC4CC(CC(C4)C2c2ccc(OCC(=O)N4CCN(C)CC4)cc2)C3)cc1OC` (stereo not shown) [Compound 14d, 3,4-Dimethoxybenzyl-2-(4-(2-(4-methylpiperazin-1-yl)-2-oxoethoxy)phenyl) adamantane-1-ylcarboxylate], 1.67 µM corresponded to half-maximal inhibition (IC50). For `COc1ccc(COC(=O)C23CC4CC(CC(C4)C2c2ccc(OCC(=O)Nc4cccc5cccnc45)cc2)C3)cc1OC` (stereo not shown) [Compound 14b, 3,4-Dimethoxybenzyl-2-(4-(2-oxo-2-(quinolin-8-ylamino)ethoxy)phenyl) adamantane-1-ylcarboxylate], the IC50 was above 20 µM. With `CN1CCN(C(=O)COc2ccc(C34CC5CC(CC(C(=O)NCc6ccco6)(C5)C3)C4)cc2)CC1` [Compound 17a, N-(Furan-2-ylmethyl)-5-(4-(2-(4-methylpiperazin-1-yl)-2-oxoethoxy)phenyl) adamantan-1-yl-carboxamide], the IC50 is above 20 µM. Turning to `COc1ccc(COC(=O)C23CC4CC(CC(C4)C2c2ccc(OCC(=O)Nc4cccc(C(F)(F)F)c4)cc2)C3)cc1OC` (stereo not shown) [Compound 14a, 3,4-Dimethoxybenzyl-2-(4-(2-oxo-2-(3-(trifluoromethyl)phenylamino)ethoxy)phenyl) adamantane-1-ylcarboxylae], the 50% inhibitory concentration (IC50) was above 20 µM. Same read-out and setting: to `CN1CCN(C(=O)COc2ccc(C34CC5CC(CC(C(=O)N6CCN(Cc7ccc(C(F)(F)F)cc7)CC6)(C5)C3)C4)cc2)CC1` [Compound 17b, 1-(4-Methylpiperazin-1-yl)-2-(4-(5-(4-(4-(trifluoromethyl)benzyl)piperazine-1-carbonyl)adamantan-1-yl-)phenoxy) ethanone] belongs 2.19 µM.

The same experiment, now with this note: Homo sapiens, HCT-116; HCT116 cells stably expressing HRE-dependent luciferase reporter, hypoxic conditions, 12 hours; means of three experiments.
As for `COc1cc2c(cc1OC)CN(C(=O)C13CC4CC(C1)CC(c1ccc(OCC(=O)N5CCN(C)CC5)cc1)(C4)C3)CC2` [Compound 21b, 2-(4-(3-(6,7-Dimethoxy-1,2,3,4-tetrahydroisoquinoline-2-carbonyl)adamantan-1-yl)phenoxy)-1-(4-methylpiperazin-1-yl) ethanone], the IC50 was 9.51 µM. Same read-out and setting: to `COC(=O)c1cccc(NC(=O)COc2ccc(C34CC5CC(CC(C(=O)OC)(C5)C3)C4)cc2)c1` [Compound 10a, Methyl-3-(2-(4-(3-((methoxy)carbonyl)adamantane-1-yl)phenoxy)acetamido)benzoate] belongs 18.3 µM; to `COC(=O)c1cccc(NC(=O)COc2ccc(C34CC5CC(CC(C(=O)Nc6ccccn6)(C5)C3)C4)cc2)c1` [Compound 10i, Methyl-3-(2-(4-(3-(pyridin-2-ylcarbamoyl)-adamantan-1-yl)phenoxy)acetamido)benzoate], 2.4 µM.

Take `COC(=O)c1cccc(NC(=O)COc2ccc(C34CC5CC(CC(C(=O)NCc6ccco6)(C5)C3)C4)cc2)c1` [Compound 10h, Methyl-3-(2-(4-(3-(furan-2-ylmethylcarbamoyl)-adamantan-1-yl)phenoxy)acetamido)benzoate]: the IC50 came out at 3 µM. Take `COC(=O)c1cccc(NC(=O)COc2ccc(C34CC5CC(CC(C(=O)N6CCc7cc(OC)c(OC)cc7C6)(C5)C3)C4)cc2)c1` [Compound 10j, Methyl-3-(2-(4-(3-(6,7-dimethoxy-1,2,3,4-tetrahydroisoquinoline-2-carbonyl)-adamantan-1-yl)phenoxy)acetamido)benzoate]: half-maximal inhibition (IC50) was put at 1.3 µM. Still for that read-out and setting: to `COC(=O)c1cccc(NC(=O)COc2ccc(C34CC5CC(CC(C(=O)OCc6ccco6)(C5)C3)C4)cc2)c1` [Compound 10e, Methyl-3-(2-(4-(3-((furan-2-ylmethoxy)carbonyl)adamantane-1-yl)phenoxy)acetamido)benzoate] belongs 6.4 µM; to `COc1ccc(CN2CCN(C(=O)C34CC5CC(C3)CC(c3ccc(OCC(=O)N6CCN(C)CC6)cc3)(C5)C4)CC2)cc1` [Compound 17c, 2-(4-(5-(4-(4-Methoxybenzyl)piperazine-1-carbonyl)adamantan-1-yl)phenoxy)-1-(4-methylpiperazin-1-yl) ethanone], 9.53 µM.

`COC(=O)c1cccc(NC(=O)COc2ccc(C34CC5CC(CC(C(=O)NCc6ccccc6)(C5)C3)C4)cc2)c1` [Compound 10g, Methyl-3-(2-(4-(3-benzylcarbamoyl-adamantan-1-yl)phenoxy)acetamido)benzoate] returned a concentration for half-maximal inhibition (IC50) of 1.3 µM. Same read-out and setting: with `COC(=O)c1cccc(NC(=O)COc2ccc(C34CC5CC(CC(C5)C3C(=O)OCCc3ccc(OC)c(OC)c3)C4)cc2)c1` (stereo not shown) [Compound 10d, Methyl-3-(2-(4-(2-((3,4-dimethoxyphenethoxy)carbonyl)adamantane-1-yl)phenoxy)acetamido)benzoate] the figure was above 20 µM; with `CNC(=O)C12CC3CC(C1)CC(c1ccc(OCC(=O)Nc4cccc(C(=O)OC)c4)cc1)(C3)C2` [Compound 10f, Methyl-3-(2-(4-(3-methylcarbamoyl-adamantan-1-yl)phenoxy)acetamido)benzoate], 16.6 µM; with `COC(=O)c1cccc(NC(=O)COc2ccc(C34CC5CC(C3)C(C(=O)OCc3ccc(OC)c(OC)c3)C(C5)C4)cc2)c1` (stereo not shown) [Compound 10c, Methyl-3-(2-(4-(4-((3,4-dimethoxybenzyloxy)carbonyl)adamantane-1-yl)phenoxy)acetamido)benzoate], 2.37 µM. The same measure, in the same setting: with `COc1cc2c(cc1OC)CN(C(=O)C13CC4CC(C1)CC(c1ccc(OCC(=O)N5CCOCC5)cc1)(C4)C3)CC2` [Compound 21a, 2-(4-(3-(6,7-Dimethoxy-1,2,3,4-tetrahydroisoquinoline-2-carbonyl)adamantan-1-yl)phenoxy)-1-morpholinoethanone] the figure was 5.43 µM; with `COC(=O)c1cccc(NC(=O)COc2ccc(C34CC5CC(C3)C(C(=O)OCc3ccc(OC)cc3)C(C5)C4)cc2)c1` (stereo not shown) [Compound 10b, Methyl-3-(2-(4-(4-((4-methoxybenzyloxy)carbonyl)adamantane-1-yl)phenoxy)acetamido)benzoate], above 20 µM.
